Results: ChEMBL document CHEMBL4373744, “Modifying the lipophilic part of phenylthiazole antibiotics to control their drug-likeness” (Eur J Med Chem, 2020)
In brackets after ≈: the same amount, converted by molar mass. Activity calls are given as the source filed them. The rule behind the calls is not given here.

Assays:
[1] = test system: Staphylococcus epidermidis; test: Antimicrobial activity against methicillin-resistant Staphylococcus epidermidis NRS101 by broth liquid microdilution method; format: functional
Staphylococcus aureus [2] = test: microbe, parasite or virus in culture; settings: NRS 385
Description: Antimicrobial activity against methicillin-resistant Staphylococcus aureus NRS 385 by broth liquid microdilution method

Staphylococcus aureus [3] = test: Antibiofilm activity against methicillin-resistant Staphylococcus aureus USA300 at 2 times MIC incubated for 24 hrs by crystal violet staining based assay relative to control; format: functional
Staphylococcus aureus [4] = test: microbe, parasite or virus in culture; settings: NRS 107
Description: Antimicrobial activity against methicillin-sensitive Staphylococcus aureus NRS 107 by broth liquid microdilution method

Listeria monocytogenes = test: Antimicrobial activity against Listeria monocytogenes ATCC 19111 by broth liquid microdilution method; format: functional
Staphylococcus aureus [5] = test: Antibiofilm activity against methicillin-resistant Staphylococcus aureus USA300 at 4 times MIC incubated for 24 hrs by crystal violet staining based assay relative to control; format: functional
Staphylococcus aureus [6] = test: Bactericidal activity against methicillin-resistant Staphylococcus aureus USA400 assessed as 3 log reduction in number of colony forming units at 5 times MIC incubated for 12 hrs by aliquots transfer to tryptic soy agar and grown for 18 to 20 hrs by Time-kill assay; format: functional, organism-based
Staphylococcus aureus [7] = test: Antimicrobial activity against vancomycin-resistant Staphylococcus aureus 12 by broth liquid microdilution method; format: functional
Staphylococcus aureus [8] = test: Antimicrobial activity against vancomycin-resistant Staphylococcus aureus 10 by broth liquid microdilution method; format: functional
Escherichia coli [9] = test: Antimicrobial activity against Escherichia coli JW55031 harboring deltatolC mutant by broth liquid microdilution method; format: functional
Staphylococcus aureus [10] = test: microbe, parasite or virus in culture; settings: ATCC 6538
Description: Antimicrobial activity against methicillin-sensitive Staphylococcus aureus ATCC 6538 by broth liquid microdilution method

Staphylococcus aureus [11] = test: Antimicrobial activity against methicillin-resistant Staphylococcus aureus USA400 infected in mouse J774 cells assessed as reduction in […] bacterial count at 2 to 4 times MIC incubated for 24 hrs; format: functional, organism-based
Enterococcus faecium = test: Antimicrobial activity against vancomycin-resistant Enterococcus faecium ATCC 700221 by broth liquid microdilution method; format: functional
Streptococcus pneumoniae [12] = test: Antimicrobial activity against cephalosporin-resistant Streptococcus pneumoniae ATCC 51916 by broth liquid microdilution method; format: functional
Staphylococcus aureus [13] = test: microbe, parasite or virus in culture; settings: NRS384
Description: Antimicrobial activity against methicillin-resistant Staphylococcus aureus NRS384 by broth liquid microdilution method

Streptococcus pneumoniae [14] = test: Antimicrobial activity against methicillin-resistant Streptococcus pneumoniae ATCC 700677 by broth liquid microdilution method; format: functional
Staphylococcus aureus [15] = test: microbe, parasite or virus in culture; settings: NRS123
Description: Antimicrobial activity against methicillin-resistant Staphylococcus aureus NRS123 by broth liquid microdilution method

Staphylococcus aureus [16] = test: microbe, parasite or virus in culture; settings: NRS119
Description: Antimicrobial activity against methicillin-resistant Staphylococcus aureus NRS119 by broth liquid microdilution method

Staphylococcus aureus [17] = test: microbe, parasite or virus in culture; settings: NRS 386
Description: Antimicrobial activity against methicillin-resistant Staphylococcus aureus NRS 386 by broth liquid microdilution method

Enterococcus faecalis = test: microbe, parasite or virus in culture; settings: ATCC 51299
Escherichia coli [18] = test: Antimicrobial activity against Escherichia coli BW25113 by broth liquid microdilution method; format: functional

Row | SMILES | MBC [1] | MBC (Staphylococcus aureus [2]) | MBC (Staphylococcus aureus [4]) | MIC (Listeria monocytogenes) | MBC (Staphylococcus aureus [7]) | MIC (Staphylococcus aureus [7]) | MBC (Staphylococcus aureus [8]) | MIC (Staphylococcus aureus [8]) | MBC (Staphylococcus aureus [10]) | MBC (Enterococcus faecium) | MIC (Enterococcus faecium) | MBC (Staphylococcus aureus [13]) | MBC (Staphylococcus aureus [15]) | MBC (Staphylococcus aureus [16]) | MBC (Staphylococcus aureus [17]) | MBC (Enterococcus faecalis) | further results
1 | CN[C@H](CC(C)C)C(=O)N[C@H]1C(=O)N[C@@H](CC(N)=O)C(=O)N[C@H]2C(=O)N[C@H]3C(=O)N[C@H](C(=O)N[C@H](C(=O)O)c4cc(O)cc(O)c4-c4cc3ccc4O)[C@H](O)c3ccc(c(Cl)c3)Oc3cc2cc(c3O[C@@H]2O[C@H](CO)[C@@H](O)[C@H](O)[C@H]2O[C@H]2C[C@](C)(N)[C@H](O)[C@H](C)O2)Oc2ccc(cc2Cl)[C@H]1O [VANCOMYCIN] | 2 µg/mL (≈ 1.38 µM) | 1 µg/mL (≈ 0.69 µM) | 2 µg/mL (≈ 1.38 µM) | 1 µg/mL (≈ 0.69 µM) | 64 µg/mL (≈ 44.2 µM) | 64 µg/mL (≈ 44.2 µM) | > 64 µg/mL | 64 µg/mL (≈ 44.2 µM) | 2 µg/mL (≈ 1.38 µM) | > 64 µg/mL | > 64 µg/mL | 1 µg/mL (≈ 0.69 µM) | 1 µg/mL (≈ 0.69 µM) | 2 µg/mL (≈ 1.38 µM) | 1 µg/mL (≈ 0.69 µM) | 64 µg/mL (≈ 44.2 µM) | Activity (Staphylococcus aureus [3]): 9%; Activity (Staphylococcus aureus [5]): 16%; Activity (Staphylococcus aureus [6]): Active; MIC (Escherichia coli [9]): ≤ 0.5 µg/mL; Activity (Staphylococcus aureus [11]): inactive; MIC (Streptococcus pneumoniae [12]): 1 µg/mL (≈ 0.69 µM); MIC (Streptococcus pneumoniae [14]): 2 µg/mL (≈ 1.38 µM); MIC (Enterococcus faecalis): 32 µg/mL (≈ 22.1 µM); MIC (Escherichia coli [18]): ≤ 0.5 µg/mL
2 | CC(=O)NC[C@H]1CN(c2ccc(N3CCOCC3)c(F)c2)C(=O)O1 [LINEZOLID] | 16 µg/mL (≈ 47.4 µM) | 32 µg/mL (≈ 94.9 µM) | 64 µg/mL (≈ 190 µM) | ≤ 0.5 µg/mL | 64 µg/mL (≈ 190 µM) | 1 µg/mL (≈ 2.96 µM) | > 64 µg/mL | 1 µg/mL (≈ 2.96 µM) | 16 µg/mL (≈ 47.4 µM) | 16 µg/mL (≈ 47.4 µM) | 1 µg/mL (≈ 2.96 µM) | 32 µg/mL (≈ 94.9 µM) | 32 µg/mL (≈ 94.9 µM) | > 64 µg/mL | 64 µg/mL (≈ 190 µM) | 16 µg/mL (≈ 47.4 µM) | MIC [1]: 1 µg/mL (≈ 2.96 µM); MIC (Staphylococcus aureus [2]): 1 µg/mL (≈ 2.96 µM); MIC (Staphylococcus aureus [4]): 1 µg/mL (≈ 2.96 µM); MBC (Listeria monocytogenes): 16 µg/mL (≈ 47.4 µM); MIC (Staphylococcus aureus [10]): 1 µg/mL (≈ 2.96 µM); MBC (Streptococcus pneumoniae [12]): 32 µg/mL (≈ 94.9 µM); MIC (Staphylococcus aureus [13]): 1 µg/mL (≈ 2.96 µM); MBC (Streptococcus pneumoniae [14]): 16 µg/mL (≈ 47.4 µM); MIC (Staphylococcus aureus [15]): 1 µg/mL (≈ 2.96 µM); MIC (Staphylococcus aureus [16]): 64 µg/mL (≈ 190 µM)
